Test results from ChEMBL document CHEMBL1123763, “Resolution of (+/-)-2-tetradecyloxiranecarboxylic acid. Absolute configuration and chiral synthesis of the hypoglycemic R enantiomer and biological activity of enantiomers” (J Med Chem, 1987).
Values belong to the compound of their own block, whether it stands above or below them. The source made the active and inactive calls. The rule behind the calls is not given here.

Key:
[1] = biological target: T1, Carnitine O-palmitoyltransferase 1, liver isoform (Rattus norvegicus, UniProt P32198); experiment: Inhibition of carnitine palmitoyl transferase (CPT), assessed with isolated rat liver mitochondria
T1 sequence (P32198 whole entry): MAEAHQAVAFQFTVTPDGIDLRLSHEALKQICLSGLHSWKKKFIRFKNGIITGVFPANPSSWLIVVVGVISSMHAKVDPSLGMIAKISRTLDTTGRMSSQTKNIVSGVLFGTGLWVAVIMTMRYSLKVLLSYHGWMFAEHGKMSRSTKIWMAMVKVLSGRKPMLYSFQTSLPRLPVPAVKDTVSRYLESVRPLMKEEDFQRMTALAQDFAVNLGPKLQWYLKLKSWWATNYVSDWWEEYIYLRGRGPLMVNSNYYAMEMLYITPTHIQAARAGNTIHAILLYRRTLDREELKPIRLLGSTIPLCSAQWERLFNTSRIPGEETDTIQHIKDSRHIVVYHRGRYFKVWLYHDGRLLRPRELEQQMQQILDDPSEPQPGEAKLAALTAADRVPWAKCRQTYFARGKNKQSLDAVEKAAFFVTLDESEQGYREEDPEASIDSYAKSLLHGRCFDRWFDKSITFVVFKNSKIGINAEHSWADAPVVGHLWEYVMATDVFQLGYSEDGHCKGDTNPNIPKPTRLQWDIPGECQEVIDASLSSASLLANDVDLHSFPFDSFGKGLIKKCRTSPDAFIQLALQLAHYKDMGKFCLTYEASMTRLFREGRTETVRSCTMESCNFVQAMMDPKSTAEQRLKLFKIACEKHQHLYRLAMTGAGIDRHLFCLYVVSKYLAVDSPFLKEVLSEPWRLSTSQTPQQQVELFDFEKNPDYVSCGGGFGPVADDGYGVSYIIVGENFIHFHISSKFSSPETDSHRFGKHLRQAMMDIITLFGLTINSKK

[2] = biological target: T1, Carnitine O-palmitoyltransferase 1, liver isoform; experiment: Inhibition of carnitine palmitoyl transferase (CPT), assessed with isolated rat liver mitochondria; Inactive
Rattus norvegicus [3] = experiment: Rat glucose tolerance test was determined in vivo at 100 mg/kg perorally; format: functional; settings: route oral
Rattus norvegicus [4] = organism: Rattus norvegicus; experiment: In vitro inhibition of [1-14C]palmitate oxidation in rat hemidiaphragms; format: functional
Rattus norvegicus [5] = experiment: Rat glucose tolerance in vivo expressed as minimum effective dose (MED), it is the lowest dose giving a statistically significant (p<0.05) lowering at any time point; format: functional; settings: read-out: MED
Rattus norvegicus [6] = organism: Rattus norvegicus; experiment: In vitro inhibition of [1-14C]palmitate oxidation in rat hemidiaphragms; Inactive; format: functional
Rattus norvegicus [7] = experiment: Rat glucose tolerance in vivo expressed as minimum effective dose (MED), it is the lowest dose giving a statistically significant (p<0.05) lowering at any time point; Inactive; format: functional, organism-based
Rattus norvegicus [8] = experiment: Rat glucose tolerance test was determined in vivo at 100 mg/kg perorally; Inactive; format: functional, organism-based; design: dose 100 mg/kg
Rattus norvegicus [9] = experiment: Rat glucose tolerance test was determined in vivo at 75 mg/kg perorally; format: functional; settings: route oral
Rattus norvegicus [10] = experiment: Rat glucose tolerance test was determined in vivo at 10 mg/kg perorally; format: functional; settings: route oral

SMILES: CCCCCCCCCCCCCC[C@]1(C(=O)SCCNC(=O)CCNC(=O)C(O)C(C)(C)COP(=O)(O)OP(=O)(O)OC[C@H]2O[C@@H](n3cnc4c(N)ncnc43)[C@H](O)[C@@H]2OP(=O)(O)O)CO1 (some centres undefined)
IC50 [1]: 0.02 µM

SMILES: CCCCCCCCCCCCCCC1(C(=O)SCCNC(=O)CCNC(=O)C(O)C(C)(C)COP(=O)(O)OP(=O)(O)OC[C@H]2O[C@@H](n3cnc4c(N)ncnc43)[C@H](O)[C@@H]2OP(=O)(O)O)CO1 (mixture of isomers)
IC50 [1]: 0.03 µM

SMILES: CCCCCCCCCCCCCC[C@@]1(C(=O)SCCNC(=O)CCNC(=O)C(O)C(C)(C)COP(=O)(O)OP(=O)(O)OC[C@H]2O[C@@H](n3cnc4c(N)ncnc43)[C@H](O)[C@@H]2OP(=O)(O)O)CO1 (some centres undefined)
IC50 [2]: Not Active

SMILES: CCCCCCCCCCCCCCC1(C(=O)OC)CO1 (racemic) [METHYL PALMOXIRATE]
Lowering (Rattus norvegicus [9]): 45% | minimal effective dose (Rattus norvegicus [5]): 2 mg/kg | IC50 [1]: 0.09 µM

More lines, main results first:

IC50 (Rattus norvegicus [4]): 2.2 µM | IC50 [1]: 0.04 µM
SMILES: CCCCCCCCCCCCCCC1(C(=O)O)CO1 (racemic) [PALMOXIRATE]
Lowering (Rattus norvegicus [3]): 53% | minimal effective dose (Rattus norvegicus [5]): 5 mg/kg

IC50 (Rattus norvegicus [6]): Not Active | IC50 [2]: Not Active
SMILES: CCCCCCCCCCCCCC[C@@]1(C(=O)O)CO1
MED (Rattus norvegicus [7]): inactive | Lowering (Rattus norvegicus [8]): inactive

IC50 [1]: 0.04 µM
SMILES: CCCCCCCCCCCCCC[C@]1(C(=O)OC)CO1

IC50 (Rattus norvegicus [4]): 1.2 µM | IC50 [1]: 0.03 µM
SMILES: CCCCCCCCCCCCCC[C@]1(C(=O)O)CO1
minimal effective dose (Rattus norvegicus [5]): 5 mg/kg | Lowering (Rattus norvegicus [10]): 25%
